The conditions of data set [1]: use 6 months before and after diagnosis; adjusted for Breslow, sentinel lymph node status and education level.
Data set [2] can be described thus: Nation-wide register-based study, Cox regression: overall mortality/survival by antihistamine use. It counts as in vivo, human. The following applies: hazard ratio versus non-users. As to the method: (§1) Both peri- and post-diagnostic antihistamine use was analyzed, using Cox regression models, as well as different subgroups of patients with regard to age, gender (as a proxy for sex) and tumor status.
(§2) Our study population included all of the 35,905 individuals with newly diagnosed melanoma from 2005 through 2014, identified using the Swedish National Quality Register for Malignant Skin Melanoma (hereafter referred to as the Melanoma Register), a database comprising all cases of malignant melanoma of the skin in Sweden since 1990. Melanoma in situ is not included in this register, nor melanoma in any other site than the skin. It has a coverage of approximately 98%, and in addition to variables such as age and TNM status, the Melanoma Register also includes information on the histopathology of the tumors, such as Breslow and Clark measures. Use of the six major antihistamines was established using the Swedish Prescribed Drug Register, a record of all dispensed prescribed pharmaceuticals in Sweden since July 1st 2005. To be included in the registry at least 2 weeks of prescription is required. Prescription free antihistamine use, non-dispensed doses, or use of other, less common, types of antihistamines is here considered non-use. Causes of death were obtained from the Swedish Cause of Death Register, a database where all deaths have been recorded since 1952. Data was pseudo-anonymized and the study was approved by the Regional Ethics Board.
(§3) For the cumulative post-diagnostic antihistamine use analysis, mortality rates for antihistamine users were compared to those of non-users through a Cox regression model allowing for time varying covariates, and survival time was measured in years since diagnosis. This allowed for a single individual to provide data as both a non-user and user of different antihistamines.
(§4) The impact of the cumulative DDDs was assessed after log transformation of the DDDs plus one3. Cox regression analyses were stratified for patient age at diagnosis, tumor size and node status (T and N status, respectively). A lag-time analysis was performed as described by Tamim et al. and Richardson et al. Statistical analyses were performed using R version XXX6.

For data set [3] the following is noted: for HR, melanoma specific survival adjusted for Breslow thickness / HR, melanoma specific survival adjusted for Breslow thickness and lymph gland metastases: hazard ratio versus non-users; for survivability, comparative results adjusted for Breslow thickness: tables 1 and 2, adjusted for Breslow thickness; for effect on melanoma survival: regardless of age, gender and tumor status. The method, then: as §1, §2, §3, §4

Data set [4] in a line: Risk of developing a second (new primary) melanoma after the first melanoma diagnosis. It counts as in vivo, human. The following applies: for HR, risk of a new primary melanoma: use longer than 3 years after the first diagnosis, adjusted for age and sex, p<0.05.
The conditions of data set [5]: somnolence, tachycardia and headache reported; cited from earlier work.

As to `O=C(O)COCCN1CCN(C(c2ccccc2)c2ccc(Cl)cc2)CC1` (centres unmarked) [Cetirizine, cetirizine], in data set [1], the “HR, peridiagnostic use, melanoma mortality” value (from here on “HR, peridiagnostic use”) is recorded as 0.962. Besides, in data set [2], the “HR, overall survival adjusted for Breslow thickness” value turned out to be 1; the “HR, overall survival adjusted for Breslow thickness and lymph gland metastases” value came to 0.991. Also, in data set [3], the “HR, melanoma specific survival adjusted for Breslow thickness” value came out at 1.006; the “HR, melanoma specific survival adjusted for Breslow thickness and lymph gland metastases” value was 1.014; the “survivability, comparative results adjusted for Breslow thickness” value (“survivability … for Breslow thickness” below) is recorded as “lack of improval of survivability”.
Consider `CN1CCC[C@@H]1CCO[C@](C)(c1ccccc1)c1ccc(Cl)cc1` [Clemastine, clemastine], for which the “HR, peridiagnostic use” value in data set [1] was 1.005. In data set [2], the “HR, overall survival adjusted for Breslow thickness” value was determined as 1.114; the “HR, overall survival adjusted for Breslow thickness and lymph gland metastases” value worked out at 1.101. In data set [3], the “HR, melanoma specific survival adjusted for Breslow thickness” value is recorded as 1.027; the “HR, melanoma specific survival adjusted for Breslow thickness and lymph gland metastases” value was found to be 0.993; the “effect on melanoma survival” value is reported as “consistently negative effect”; the “survivability … for Breslow thickness” value was “lack of improval of survivability”.
Regarding `Clc1ccc2c(c1)CCc1cccnc1C2=C1CCNCC1` [Desloratadine, desloratadine], the “HR, peridiagnostic use” value in data set [1] was 0.569. Moreover, in data set [2], the “HR, overall survival adjusted for Breslow thickness” value came to 0.95; the “HR, overall survival adjusted for Breslow thickness and lymph gland metastases” value is on record as 0.953. For the same molecule, in data set [4], the “risk of a new primary melanoma, follow up counted from day 1” value is on record as “No significant difference” and the “HR, risk of a new primary melanoma” value came to 0.88. Besides, in data set [3] (Men <65, 95% CI in brackets), the “melanoma specific mortality HR, Men <65” value is on record as 0.69 (0.37-1.29). In addition, the “melanoma specific mortality HR, Men >65” value in data set [3] (Men >65, 95% CI in brackets) is 0.77 (0.45-1.33). Besides, in data set [3] (Women <65, 95% CI in brackets), the “melanoma specific mortality HR, Women <65” value is listed as 0.57 (0.25-1.28). Moreover, in data set [3] (Women >65, 95% CI in brackets), the “melanoma specific mortality HR, Women >65” value is given as 0.80 (0.44-1.45). In addition, the “melanoma specific mortality HR, looking at DDD:s” value in data set [3] (by defined daily doses (DDDs), 95% CI in brackets) is on record as 0.93 (0.87-1.00). Besides, in data set [3], the “HR, melanoma specific survival adjusted for Breslow thickness” value was 0.883; the “HR, melanoma specific survival adjusted for Breslow thickness and lymph gland metastases” value was 0.889; the “effect on melanoma survival” value is “consistently beneficial effect”.
Take `CC(C)(C)c1ccc(C(=O)CCCN2CCC(OC(c3ccccc3)c3ccccc3)CC2)cc1` [Ebastine, ebastine]: in data set [1], the “HR, peridiagnostic use” value is on record as 1.032. Further, in data set [2], the “HR, overall survival adjusted for Breslow thickness” value was 1.117; the “HR, overall survival adjusted for Breslow thickness and lymph gland metastases” value was 1.076. Further, in data set [3], the “HR, melanoma specific survival adjusted for Breslow thickness” value turned out to be 1.138; the “HR, melanoma specific survival adjusted for Breslow thickness and lymph gland metastases” value worked out at 1.03; the “survivability … for Breslow thickness” value is listed as “lack of improval of survivability”.
As for `CC(C)(C(=O)O)c1ccc(C(O)CCCN2CCC(C(O)(c3ccccc3)c3ccccc3)CC2)cc1` (centres unmarked) [Fexofenadine, fexofenadine], the “HR, peridiagnostic use” value in data set [1] was 0.901. Further, in data set [2], the “HR, overall survival adjusted for Breslow thickness” value is 1.011; the “HR, overall survival adjusted for Breslow thickness and lymph gland metastases” value was determined as 1.013. Further, in data set [3], the “HR, melanoma specific survival adjusted for Breslow thickness” value is reported as 0.979; the “HR, melanoma specific survival adjusted for Breslow thickness and lymph gland metastases” value is 0.935; the “survivability … for Breslow thickness” value was “lack of improval of survivability”.
Regarding `CCOC(=O)N1CCC(=C2c3ccc(Cl)cc3CCc3cccnc32)CC1` [Loratadine, loratadine], the “HR, peridiagnostic use” value in data set [1] stood at 0.534. In addition, in data set [2], the “HR, overall survival adjusted for Breslow thickness” value is on record as 0.962; the “HR, overall survival adjusted for Breslow thickness and lymph gland metastases” value is 0.964. Moreover, in data set [4], the “risk of a new primary melanoma, follow up counted from day 1” value was “No significant difference” and the “HR, risk of a new primary melanoma” value was 0.88. In data set [3], the “HR, melanoma specific survival adjusted for Breslow thickness” value is given as 0.858; the “HR, melanoma specific survival adjusted for Breslow thickness and lymph gland metastases” value is given as 0.851; the “effect on melanoma survival” value was “consistently beneficial effect”. The “symptoms in connection with overdoses” value in data set [5] is recorded as “increase the incidence of anticholinergic symptoms”.

The values are drawn from patent US20220273638A1 (Belina Pharma AB, priority 2019, published 2022).
